In US20080280879A1, “SUBSTITUTED HETEROCYCLIC DERIVATIVES AND THEIR PHARMACEUTICAL USE AND COMPOSITIONS” (priority 2007, published 2008):
In brackets after ≈: the same amount, converted by molar mass.

Columns and labels:
Format in all cases: cell-based, Staphylococcus aureus
Staph aureus 1095 MRSA = test: MIC, microtiter broth dilution (CLSI M7-A7), Assay 1, Table 12 column A, no serum; settings: Assay 1, no serum
Method in brief: (§1)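 Broth microdilution in microtiter trays per CLSI M7-A7, interpreted per M100-S16; MIC (μg/ml) is the lowest concentration preventing visible growth. Serum condition used Mueller-Hinton Broth with 50% pooled inactivated human serum. Repeated runs reported as geometric mean.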

Staph aureus 1146 [1] = test: MIC, microtiter broth dilution (CLSI M7-A7), Assay 1, Table 12 column B, no serum; settings: Staph aureus 1146, Assay 1, no serum
Method in brief: as §1

Staph aureus 1146 [2] = test: MIC in Mueller-Hinton Broth with 50% pooled inactivated human serum, Assay 1, Table 12; settings: Staph aureus 1146, Assay 1, 50% human serum
Method in brief: as §1

Staph aureus 2811 = test: MIC, microtiter broth dilution (CLSI M7-A7), Assay 1, Table 12 column D, no serum; settings: Staph aureus 2811, Assay 1, no serum
Method in brief: as §1

Staph aureus 2812 = test: MIC, microtiter broth dilution (CLSI M7-A7), Assay 1, Table 12 column E, no serum; settings: Staph aureus 2812, Assay 1, no serum
Method in brief: as §1

Staph aureus 1031 [3] = test: MIC, microtiter broth dilution (CLSI M7-A7), Assay 2, Table 12 column F, no serum; settings: for MIC, column F: Staph aureus 1031, Assay 2, no serum; for MIC: Staphylococcus aureus, 1031, Staph aureus 1031, Assay 2, no serum
Protocol: (§2) The assays described herein include a panel of bacterial isolates of Staphylococcus aureus. Assay 1 comprises the strains noted in Columns A through E, and Assay 2 comprises the strains noted in Columns F through H. The assays are performed in microtiter trays according to Methods for Dilution Antimicrobial Susceptibility Tests for Bacteria that Grow Aerobically; Approved Standard-7th edition (M7-A7) and interpreted according to the Performance Standards for Antimicrobial Susceptibility Testing; 16th Informational Supplement (M100-S16) published by Clinical Laboratory Standards Institute (CLSI). The antibacterial activity is presented in the form of a minimum inhibitory concentration (MIC) value in μg/ml format. The MIC value represents the lowest concentration of drug measured which prevented macroscopically visible growth under the conditions and specific doses tested. The compounds were initially dissolved in DMSO as 30 mM stocks and diluted accordingly to adjust to a concentration of 10 mg/ml or the compounds were dissolved in DMSO at a concentration of 10 mg/ml. For assessment of activity in the presence of human serum, S. aureus 1146 and S. aureus 1031 were inoculated into Mueller-Hinton Broth with 50% pooled inactivated human serum. In some cases, compounds were tested more than once in a particular assay. Where noted, the MIC value shown in Table 12 represents the geometric mean of the data from multiple runs.
(§3) It should be understood that the data in columns A-H represents MIC data in μg/ml and the notation “<=” means ‘less than or equal to’.

Staph aureus 2810 = test: MIC, microtiter broth dilution (CLSI M7-A7), Assay 2, Table 12 column H, no serum; settings: for MIC, column H: Staph aureus 2810, Assay 2, no serum; for MIC: Staphylococcus aureus, 2810, Staph aureus 2810, Assay 2, no serum
Protocol: as §2, §3

Staph aureus 1031 [4] = test: MIC in Mueller-Hinton Broth with 50% pooled inactivated human serum, Assay 2, Table 12 column G; settings: for MIC: Staphylococcus aureus, 1031, Staph aureus 1031, Assay 2, 50% human serum
Protocol: as §2, §3

Row | MIC (Staph aureus 1031 [3]) [µg/mL] | MIC (Staph aureus 1031 [4]) [µg/mL] | MIC (Staph aureus 2810) [µg/mL] | Compound | other results
1 |  |  |  | COc1ccc2nccc(C(O)CC[C@@H]3CCN(C4CC(c5ccccc5)C4)C[C@@H]3C(=O)O)c2c1 (single isomer, unassigned) [Example 1] | MIC, column A (Staph aureus 1095 MRSA): <=.0992 μg/ml; MIC, column B (Staph aureus 1146 [1]): <=.0787 μg/ml; MIC, column C (Staph aureus 1146 [2]): 0.3969 µg/mL (≈ 0.836 µM); MIC, column D (Staph aureus 2811): <=.0787 μg/ml; MIC, column E (Staph aureus 2812): <=.0992 μg/ml; MIC, column F (Staph aureus 1031 [3]): <=.0884 μg/ml; MIC, column H (Staph aureus 2810): 0.125 µg/mL (≈ 0.263 µM)
2 | > 64 | > 64 | > 64 | COc1ccc2nccc([C@@H](O)CC[C@@H]3CCN(C4CCc5cc(F)ccc54)C[C@@H]3C(=O)O)c2c1 (single isomer, unassigned) [Example 75] | 
3 | 16 (≈ 31.7 µM) | 64 (≈ 127 µM) | 16 (≈ 31.7 µM) | COc1ccc2nccc(C(O)CC[C@@H]3CCN(C4CC(OCc5ccccc5)C4)C[C@@H]3C(=O)O)c2c1 (stereo partly drawn) [Example 20, (3R,4R)-1-[3-(benzyloxy)cyclobutyl]-4-[3-hydroxy-3-(6-methoxyquinolin-4-yl)propyl]piperidine-3-carboxylic acid] | 
4 |  |  |  | COC(=O)[C@H]1CN(C2CCc3cc(F)ccc32)CC[C@H]1CCC(O)c1ccnc2ccc(OC)cc12 (stereo partly drawn) [Example 73, methyl (3R,4R)-1-(5-fluoro-2,3-dihydro-1H-inden-1-yl)-4-[3-hydroxy-3-(6-methoxyquinolin-yl)propyl]piperidine-3-carboxylate] | MIC, column F (Staph aureus 1031 [3]): >64 µg/mL; MIC, column G (Staph aureus 1031 [4]; Staph aureus 1031, Assay 2, 50% human serum): >64 µg/mL; MIC, column H (Staph aureus 2810): >64 µg/mL
5 | > 64 | > 64 | > 64 | COc1ccc2nccc(C(O)CC[C@@H]3CCN(C4CCc5cc(F)ccc54)C[C@@H]3C(=O)O)c2c1 (stereo partly drawn) [Example 74, (3R,4R)-1-(5-fluoro-2,3-dihydro-1H-inden-1-yl)-4-(3-hydroxy-3-(6-methoxyquinolin-4-yl)propyl)piperidine-3-carboxylic acid] | 
6 | > 64 | > 64 | > 64 | COC(=O)[C@H]1CN(C2CCCc3ccccc32)CC[C@H]1CCC(O)c1ccnc2ccc(OC)cc12 (stereo partly drawn) [Example 76, (3R,4R)-methyl 4-(3-hydroxy-3-(6-methoxyquinolin-4-yl)propyl)-1-(1,2,3,4-tetrahydronaphthalen-1-yl)piperidine-3-carboxylate] | 
7 | > 64 | > 64 | > 64 | COc1ccc2nccc(C(O)CC[C@@H]3CCN(C4CCCc5ccccc54)C[C@@H]3C(=O)O)c2c1 (stereo partly drawn) [Example 77, (3R,4R)-4-(3-hydroxy-3-(6-methoxyquinolin-4-yl)propyl)-1-(1,2,3,4-tetrahydronaphthalen-1-yl)piperidine-3-carboxylic acid] | 
8 | > 64 | > 64 | > 64 | COC(=O)[C@H]1CN(C2Cc3ccccc3C2)CC[C@H]1CCC(O)c1ccnc2ccc(OC)cc12 (stereo partly drawn) [Example 78, (3R,4R)-methyl 1-(2,3-dihydro-1H-inden-2-yl)-4-(3-hydroxy-3-(6-methoxyquinolin-4-yl)propyl)piperidine-3-carboxylate] | 
9 | 8 (≈ 17.4 µM) | 64 (≈ 139 µM) | 8 (≈ 17.4 µM) | COc1ccc2nccc(C(O)CC[C@@H]3CCN(C4Cc5ccccc5C4)C[C@@H]3C(=O)O)c2c1 (stereo partly drawn) [Example 79, (3R,4R)-1-(2,3-dihydro-1H-inden-2-yl)-4-(3-hydroxy-3-(6-methoxyquinolin-4-yl)propyl)piperidine-3-carboxylic acid] | 
10 | 1 (≈ 2.02 µM) | > 64 | 1 (≈ 2.02 µM) | COc1ccc2nccc(C(O)CC[C@@H]3CCN(C4Cc5ccc(Cl)cc5C4)C[C@@H]3C(=O)O)c2c1 (stereo partly drawn) [Example 80, (3R,4R)-1-(5-chloro-2,3-dihydro-1H-inden-2-yl)-4-(3-hydroxy-3-(6-methoxyquinolin-4-yl)propyl)piperidine-3-carboxylic acid] | 
11 | 4 (≈ 7.41 µM) | > 64 | 4 (≈ 7.41 µM) | COc1ccc2nccc(C(O)CC[C@@H]3CCN(C4Cc5cccc(Br)c5C4)C[C@@H]3C(=O)O)c2c1 (stereo partly drawn) [Example 81, (3R,4R)-1-(4-bromo-2,3-dihydro-1H-inden-2-yl)-4-(3-hydroxy-3-(6-methoxyquinolin-4-yl)propyl)piperidine-3-carboxylic acid] | 
